The text below walks through data of US20240002899A1 (priority 2022, published 2024).

The assay concerns VSV (ATCC VR-1238). The assay is classed as cell-based, vesicular stomatitis virus.

Structures are written as SMILES. Read-outs that look alike come from different tables or passages of the source.

For `Cc1cc2nc3c(=O)[nH]c(=O)nc-3n(C[C@H](O)[C@H](O)[C@H](O)CO)c2cc1C` [riboflavin], the “MVEPI of VSV in plasma” value came to 4.04 (intermediate-acting RUV: 311 nm, irradiation dose 6.49 J/mL) and 1.77 (weak-acting (low-acting) RUV: 365 nm, irradiation dose 12.56 J/mL).
